Common to all, as to assay: Paper disk method, enhancing action for activities of azole antifungal agents
What all share (type): cell-based

The subject of assay [1] is Candida albicans ATCC 64548. The note with it: 24 hours; for Inhibition activity (inhibition ring mm) C. albicans ATCC 64548 GYM / Transparency of the inhibition ring C. albicans ATCC 64548 GYM: miconazole 0.03 μg/ml; for Inhibition activity (inhibition ring mm) C. albicans ATCC 64548 GYF / Transparency of the inhibition ring C. albicans ATCC 64548 GYF: fluconazole 0.5 μg/ml. The method in brief:
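GY agar (pH 6.0) seeded with C. albicans ATCC 64548 precultured in Waksman broth at 27° C for 40 hours, supplemented with sub-growth-inhibitory miconazole 0.03 μg/ml or fluconazole 0.5 μg/ml. Paper disk method; inhibition-zone diameter (mm) read after 24 hours, transparency graded A–E.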

For assay [2], the system named is fluconazole resistant Candida albicans ATCC 64550. The following applies: 24 hours; for Inhibition activity (inhibition ring mm) C. albicans ATCC 64550 GYF / Transparency of the inhibition ring C. albicans ATCC 64550 GYF: fluconazole 30 μg/ml; for Inhibition activity (inhibition ring mm) C. albicans ATCC 64550 GYM / Transparency of the inhibition ring C. albicans ATCC 64550 GYM: miconazole 0.15 μg/ml. On the procedure:
Test organisms used were Candida albicans ATCC 64548, fluconazole resistant Candida albicans ATCC 64550 and Aspergillus niger ATCC 6275. Candida spp. were cultured in Waksman broth (glucose 2.0%, peptone 0.5%, dry yeast 0.3%, meat extract 0.5%, NaCl 0.5% and CaCO3 0.3%, pH 7.0) at 27° C. for 40 hours, then 0.1% thereof was inoculated on GY agar medium (glucose 1.0%, yeast extract 0.5% and agar 0.8%, pH 6.0). Spore suspension 0.2% of Aspergillus niger ATCC 6275 was inoculated on GY agar medium.
Azole antifungal agents used were miconazole (Sigma Inc., the U.S.) and fluconazole (ICN Pharmaceuticals, Inc., the U.S.), and were added at concentrations without affecting growth on each test organisms follows.
Candida albicans ATCC 64550: miconazole 0.15 μg/ml or fluconazole 30 μg/ml.
In the above medium, a medium added with miconazole to GY medium (control) is designated as GYM, and a medium added with fluconazole is designated as GYF. Activities were assessed by means of paper disk method (thickness: 8 mm, ADVANTEC MFS INC., Japan). Diameter of inhibition ring is expressed with mm unit after culturing Candida spp. for 24 hours and Aspergillus niger ATCC 6275 for 48 hours. Transparency of the inhibition ring is assessed with 5 degrees of A, B, C, D and E (transparence<A<B<C<D<E<opaque).

Assay [3] relates to Aspergillus niger ATCC 6275. The following applies: 48 hours; for Inhibition activity (inhibition ring mm) A. niger ATCC 6275 GYF / Transparency of the inhibition ring A. niger ATCC 6275 GYF: fluconazole 10 μg/ml; for Inhibition activity (inhibition ring mm) A. niger ATCC 6275 GYM / Transparency of the inhibition ring A. niger ATCC 6275 GYM: miconazole 0.1 μg/ml. The method, boiled down: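 Paper-disk assay on A. niger ATCC 6275 spores (0.2%) seeded on GY agar pH 6.0. After 48 h, inhibition-zone diameter recorded in mm and transparency graded A (transparent) to E (opaque).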

[4] abbreviates: 50 μg/8 mm disk, GY medium (control, no azole).

`CCC(=O)OC1C(C)OC(OC2C(C)C(=O)OC(C(C)(O)C(CC)OC(=O)CC)C(C)C3=C(C)CC(C)(O3)C(OC3OC(C)CC(N(C)C)C3O)C2C)CC1(C)OC` (stereo not drawn) [Compound 776, 4″,13-Di-O-propionyl-8,9-Anhydro-pseudo-erythromycin A 6,9-hemiketal]: in assay [1] (50 μg/8 mm disk), the “Inhibition activity (inhibition ring mm) C. albicans ATCC 64548 GYM” value worked out at 11 mm; the “Transparency of the inhibition ring C. albicans ATCC 64548 GYM” value is “D (Growth of test organism was inhibited 35% or more and 55% or less.)”. Also, in assay [1] (100 μg/8 mm disk), the “Inhibition activity (inhibition ring mm) C. albicans ATCC 64548 GYF” value was 15 mm and the “Transparency of the inhibition ring C. albicans ATCC 64548 GYF” value was “E (Growth of test organism was inhibited 35% or less.)”. For the same compound, in assay [2] (50 μg/8 mm disk), the “Inhibition activity (inhibition ring mm) C. albicans ATCC 64550 GYF” value was found to be 9 mm, the “Transparency of the inhibition ring C. albicans ATCC 64550 GYF” value is “E (Growth of test organism was inhibited 35% or less.)”, the “Inhibition activity (inhibition ring mm) C. albicans ATCC 64550 GYM” value turned out to be 11 mm and the “Transparency of the inhibition ring C. albicans ATCC 64550 GYM” value is reported as “E (Growth of test organism was inhibited 35% or less.)”. Moreover, in assay [3] (10 μg/8 mm disk), the “Inhibition activity (inhibition ring mm) A. niger ATCC 6275 GYF” value amounted to 16 mm and the “Transparency of the inhibition ring A. niger ATCC 6275 GYF” value is given as “E (Growth of test organism was inhibited 35% or less.)”. Moreover, in assay [3] (50 μg/8 mm disk), the “Inhibition activity (inhibition ring mm) A. niger ATCC 6275 GYF” value worked out at 16 mm; the “Transparency of the inhibition ring A. niger ATCC 6275 GYF” value is “E (Growth of test organism was inhibited 35% or less.)”; the “Inhibition activity (inhibition ring mm) A. niger ATCC 6275 GYM” value amounted to 20 mm; the “Transparency of the inhibition ring A. niger ATCC 6275 GYM” value is “C (Growth of test organism was inhibited 55% or more and 75% or less.)”.

Regarding `CCCCCC(=O)OC1C(C)OC(OC2C(C)C(=O)OC(C(C)(O)C(CC)OC(=O)CCCCC)C(C)C3=C(C)CC(C)(O3)C(OC3OC(C)CC(N(C)C)C3O)C2C)CC1(C)OC` (stereo not drawn) [Compound 777, 4″,13-Di-O-hexanoyl-8,9-Anhydro-pseudo-erythromycin A 6,9-hemiketal], in assay [1] (10 μg/8 mm disk), the “Inhibition activity (inhibition ring mm) C. albicans ATCC 64548 GYM” value was 11 mm; the “Transparency of the inhibition ring C. albicans ATCC 64548 GYM” value was “D (Growth of test organism was inhibited 35% or more and 55% or less.)”. Moreover, in assay [1] (50 μg/8 mm disk), the “Inhibition activity (inhibition ring mm) C. albicans ATCC 64548 GYF” value came to 11 mm; the “Transparency of the inhibition ring C. albicans ATCC 64548 GYF” value is “D (Growth of test organism was inhibited 35% or more and 55% or less.)”; the “Inhibition activity (inhibition ring mm) C. albicans ATCC 64548 GYM” value stood at 14 mm; the “Transparency of the inhibition ring C. albicans ATCC 64548 GYM” value is recorded as “A (Growth of test organism was inhibited 95% or more.)”. Further, in assay [2] (10 μg/8 mm disk), the “Inhibition activity (inhibition ring mm) C. albicans ATCC 64550 GYF” value was determined as 11 mm; the “Transparency of the inhibition ring C. albicans ATCC 64550 GYF” value was “D (Growth of test organism was inhibited 35% or more and 55% or less.)”. Also, in assay [2] (50 μg/8 mm disk), the “Inhibition activity (inhibition ring mm) C. albicans ATCC 64550 GYF” value turned out to be 14 mm, the “Transparency of the inhibition ring C. albicans ATCC 64550 GYF” value was “A (Growth of test organism was inhibited 95% or more.)”, the “Inhibition activity (inhibition ring mm) C. albicans ATCC 64550 GYM” value is listed as 14 mm and the “Transparency of the inhibition ring C. albicans ATCC 64550 GYM” value is “A (Growth of test organism was inhibited 95% or more.)”. Moreover, in assay [3] (10 μg/8 mm disk), the “Inhibition activity (inhibition ring mm) A. niger ATCC 6275 GYF” value came to 11 mm, the “Transparency of the inhibition ring A. niger ATCC 6275 GYF” value is recorded as “E (Growth of test organism was inhibited 35% or less.)”, the “Inhibition activity (inhibition ring mm) A. niger ATCC 6275 GYM” value came to 11 mm and the “Transparency of the inhibition ring A. niger ATCC 6275 GYM” value is “E (Growth of test organism was inhibited 35% or less.)”. In assay [3] (setting [4]), the “Inhibition activity (inhibition ring mm) A. niger ATCC 6275 GY” value is reported as 9 mm and the “Transparency of the inhibition ring A. niger ATCC 6275 GY” value was “E (Growth of test organism was inhibited 35% or less.)”. Besides, in assay [3] (50 μg/8 mm disk), the “Inhibition activity (inhibition ring mm) A. niger ATCC 6275 GYF” value turned out to be 17 mm; the “Transparency of the inhibition ring A. niger ATCC 6275 GYF” value was “D (Growth of test organism was inhibited 35% or more and 55% or less.)”; the “Inhibition activity (inhibition ring mm) A. niger ATCC 6275 GYM” value worked out at 13 mm; the “Transparency of the inhibition ring A. niger ATCC 6275 GYM” value is “B (Growth of test organism was inhibited 75% of more and 95% or less.)”.

Take `CCC(=O)OC1C(C)OC(OC2C(C)C(=O)OC(C(C)(O)C(CC)OC(=O)CC)C(C)C3=C(C)CC(C)(O3)C(OC3OC(C)CC(N(C)C)C3OC(C)=O)C2C)CC1(C)OC` (stereo not drawn) [Compound 771, 2′-O-acetyl-4″,13-Di-O-propionyl-8,9-Anhydro-pseudoerythromycin A 6,9-hemiketal]: in assay [1] (50 μg/8 mm disk), the “Inhibition activity (inhibition ring mm) C. albicans ATCC 64548 GYM” value is recorded as 12 mm; the “Transparency of the inhibition ring C. albicans ATCC 64548 GYM” value was “D (Growth of test organism was inhibited 35% or more and 55% or less.)”. Moreover, in assay [2] (50 μg/8 mm disk), the “Inhibition activity (inhibition ring mm) C. albicans ATCC 64550 GYF” value was found to be 10 mm, the “Transparency of the inhibition ring C. albicans ATCC 64550 GYF” value is reported as “E (Growth of test organism was inhibited 35% or less.)”, the “Inhibition activity (inhibition ring mm) C. albicans ATCC 64550 GYM” value was 10 mm and the “Transparency of the inhibition ring C. albicans ATCC 64550 GYM” value is reported as “A (Growth of test organism was inhibited 95% or more.)”. Besides, in assay [3] (10 μg/8 mm disk), the “Inhibition activity (inhibition ring mm) A. niger ATCC 6275 GYF” value was found to be 14 mm and the “Transparency of the inhibition ring A. niger ATCC 6275 GYF” value is given as “E (Growth of test organism was inhibited 35% or less.)”. In addition, in assay [3] (50 μg/8 mm disk), the “Inhibition activity (inhibition ring mm) A. niger ATCC 6275 GYF” value came out at 15 mm, the “Transparency of the inhibition ring A. niger ATCC 6275 GYF” value was “E (Growth of test organism was inhibited 35% or less.)”, the “Inhibition activity (inhibition ring mm) A. niger ATCC 6275 GYM” value turned out to be 23 mm and the “Transparency of the inhibition ring A. niger ATCC 6275 GYM” value was “E (Growth of test organism was inhibited 35% or less.)”.

The values above are taken from patent publication US20050176655A1, “Novel macrolide derivatives havaing effect of potentiating antifungal activity” (priority 2002, published 2005).
